Measurements: PubChem BioAssay AID1259411 (Chemical Carcinogenesis Research Information System (CCRIS), 2018)
Activity calls are given as the source filed them. How the calls were made is not given here.

Tested on: rodent carcinogenicity bioassays, tumor incidence
Test: CCRIS carcinogenicity studies
How it was run: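 Archive of carcinogenicity, mutagenicity, tumor promotion and tumor inhibition results drawn from journals, NCI reports and other sources, expert-reviewed; covers 1985-2011 and is no longer updated.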

Nc1ncn[nH]1
carcinogen call (Species: HAMSTER, Strain/Sex: SYRIAN/FEMALE, Route: ORAL, Dose: 0, 1, 10, 100 PPM IN DIET (TOTAL DOSE: 0; 0.07; 0.6; 6.6 G/KG) FOR 822-856 D (STUDY DURATION: LIFETIME), Dose: 0, 1, 10, 100 PPM IN DIET (TOTAL DOSE: 0; 0.07; 0.6; 6.6 G/KG) FOR 822-856 D (STUDY DURATION: LIFETIME)): inactive; negative | carcinogen call (Species: HAMSTER, Strain/Sex: SYRIAN/MALE, Route: ORAL, Dose: 0, 1, 10, 100 PPM IN DIET (TOTAL DOSE: 0; 0.08; 0.8; 7.2 G/KG) FOR 885-979 D (STUDY DURATION: LIFETIME), Dose: 0, 1, 10, 100 PPM IN DIET (TOTAL DOSE: 0; 0.08; 0.8; 7.2 G/KG) FOR 885-979 D (STUDY DURATION: LIFETIME)): inactive; negative | carcinogen call (Species: MOUSE, Route: ORAL, Tumor Site: Type of Lesion: LIVER, THYROID GLAND): active; positive | carcinogen call (Species: MOUSE, Strain/Sex: NMRI/FEMALE, Route: ORAL, Dose: 0, 1, 10, 100 PPM IN DIET (TOTAL DOSE: 0; 0.17; 1.7; 18.2 G/KG) FOR 970-1027 D (STUDY DURATION: LIFETIME), Dose: 0, 1, 10, 100 PPM IN DIET (TOTAL DOSE: 0; 0.17; 1.7; 18.2 G/KG) FOR 970-1027 D (STUDY DURATION: LIFETIME)): inactive; negative | carcinogen call (Species: MOUSE, Strain/Sex: NMRI/MALE, Route: ORAL, Dose: 0, 1, 10, 100 PPM IN DIET (TOTAL DOSE: 0; 0.13; 1.3; 13.1 G/KG) FOR 1022-1028 D (STUDY DURATION: LIFETIME), Dose: 0, 1, 10, 100 PPM IN DIET (TOTAL DOSE: 0; 0.13; 1.3; 13.1 G/KG) FOR 1022-1028 D (STUDY DURATION: LIFETIME)): inactive; negative | carcinogen call (Species: RAT, Route: ORAL, Tumor Site: Type of Lesion: LIVER, THYROID GLAND): active; positive | carcinogen call (Species: RAT, Route: SUBCUTANEOUS, Tumor Site: Type of Lesion: INJECTION SITE, LIVER, THYROID GLAND, Tumor Site: Type of Lesion: INJECTION SITE, LIVER, THYROID GLAND): active; positive | carcinogen call (Species: RAT, Strain/Sex: WISTAR/FEMALE, Route: ORAL, Dose: 0, 1, 10, 100 PPM IN DIET (TOTAL DOSE: 0; 0.08; 0.8; 7.9 G/KG) FOR 1140-1143 D (STUDY DURATION: LIFETIME), Dose: 0, 1, 10, 100 PPM IN DIET (TOTAL DOSE: 0; 0.08; 0.8; 7.9 G/KG) FOR 1140-1143 D (STUDY DURATION: LIFETIME), Tumor Site: Type of Lesion: THYROID GLAND: MALIGNANT TUMOR): active; positive | carcinogen call (Species: RAT, Strain/Sex: WISTAR/MALE, Route: ORAL, Dose: 0, 1, 10, 100 PPM IN DIET (TOTAL DOSE: 0; 0.06; 0.6; 5.8 G/KG) FOR 1137-1143 D (STUDY DURATION: LIFETIME), Dose: 0, 1, 10, 100 PPM IN DIET (TOTAL DOSE: 0; 0.06; 0.6; 5.8 G/KG) FOR 1137-1143 D (STUDY DURATION: LIFETIME), Tumor Site: Type of Lesion: THYROID GLAND: MALIGNANT TUMOR): active; positive

COC(=O)C(c1ccccc1)C1CCCCN1 (centres undefined)
carcinogen call (Species: MOUSE, Strain/Sex: B6C3F1/FEMALE, Route: ORAL, Dose: 0, 50, 250, 500 PPM IN DIET FOR 2 YR (STUDY DURATION: 2 YR), Dose: 0, 50, 250, 500 PPM IN DIET FOR 2 YR (STUDY DURATION: 2 YR), Tumor Site: Type of Lesion: LIVER: HEPATOCELLULAR ADENOMA): active; positive | carcinogen call (Species: MOUSE, Strain/Sex: B6C3F1/MALE, Route: ORAL, Dose: 0, 50, 250, 500 PPM IN DIET FOR 2 YR (STUDY DURATION: 2 YR), Dose: 0, 50, 250, 500 PPM IN DIET FOR 2 YR (STUDY DURATION: 2 YR), Tumor Site: Type of Lesion: LIVER: HEPATOCELLULAR ADENOMA, HEPATOBLASTOMA): active; positive | carcinogen call (Species: RAT, Strain/Sex: F344/FEMALE, Route: ORAL, Dose: 0, 100, 500, 1000 PPM IN DIET FOR 2 YR (STUDY DURATION: 2 YR), Dose: 0, 100, 500, 1000 PPM IN DIET FOR 2 YR (STUDY DURATION: 2 YR)): inactive; negative | carcinogen call (Species: RAT, Strain/Sex: F344/MALE, Route: ORAL, Dose: 0, 100, 500, 1000 PPM IN DIET FOR 2 YR (STUDY DURATION: 2 YR), Dose: 0, 100, 500, 1000 PPM IN DIET FOR 2 YR (STUDY DURATION: 2 YR)): inactive; negative

CCOC(=O)N(C)N=O
carcinogen call (Species: MOUSE, Route: INTRAPERITONEAL, Tumor Site: Type of Lesion: LUNG): active; positive | carcinogen call (Species: MOUSE, Route: ORAL, Tumor Site: Type of Lesion: ESOPHAGUS, FORESTOMACH): active; positive | carcinogen call (Species: RAT, Route: INTRAVENOUS, Tumor Site: Type of Lesion: LUNG): active; positive | carcinogen call (Species: RAT, Route: ORAL, Tumor Site: Type of Lesion: FORESTOMACH): active; positive | carcinogen call (Species: RAT, Strain/Sex: F344/FEMALE, Route: GAVAGE, Dose: 0, 0.35, 1.4 MG/ANIMAL IN CORN OIL 1/WK FOR 20 WK (STUDY DURATION: 114 WK), Dose: 0, 0.35, 1.4 MG/ANIMAL IN CORN OIL 1/WK FOR 20 WK (STUDY DURATION: 114 WK), Tumor Site: Type of Lesion: FORESTOMACH: CARCINOMA, ESOPHAGUS: CARCINOMA, PAPILLOMA): active; positive | carcinogen call (Species: RAT, Strain/Sex: F344/MALE, Route: ORAL, Dose: 20 PPM IN DRINKING WATER FOR 48 WK (STUDY DURATION: 104 WK), Tumor Site: Type of Lesion: FORESTOMACH: PAPILLOMA, SQUAMOUS CELL CARCINOMA): active; positive

NC(=O)NC1NC(=O)NC1=O (centres undefined)
carcinogen call (Species: RAT, Strain/Sex: F344/FEMALE, Route: ORAL, Dose: 0, 2000 PPM IN DIET FOR 106 WK (STUDY DURATION: 130 WK)): inactive; negative | carcinogen call (Species: RAT, Strain/Sex: F344/MALE, Route: ORAL, Dose: 0, 2000 PPM IN DIET FOR 106 WK (STUDY DURATION: 130 WK)): inactive; negative

Cc1ncc([N+](=O)[O-])n1CCO
carcinogen call (Species: MOUSE, Route: ORAL, Tumor Site: Type of Lesion: LUNG, LYMPHATIC SYSTEM: LYMPHOMA (NOS)): active; positive | carcinogen call (Species: RAT, Route: ORAL, Tumor Site: Type of Lesion: MAMMARY GLAND): active; positive

COP(=O)(OC)OC
carcinogen call (Species: MOUSE, Strain/Sex: B6C3F1/FEMALE, Route: GAVAGE, Dose: 0, 250, 500 MG/KG 3/WK FOR 103 WK, Dose: 0, 250, 500 MG/KG 3/WK FOR 103 WK, Tumor Site: Type of Lesion: UTERUS (ENDOMETRIUM): ADENOCARCINOMA (NOS)): active; positive | carcinogen call (Species: MOUSE, Strain/Sex: B6C3F1/MALE, Route: GAVAGE, Dose: 0, 250, 500 MG/KG 3/WK FOR 103 WK, Dose: 0, 250, 500 MG/KG 3/WK FOR 103 WK): inactive; negative | carcinogen call (Species: RAT, Strain/Sex: F344/FEMALE, Route: GAVAGE, Dose: 0, 50, 100 MG/KG 3/WK FOR 104 WK (STUDY DURATION: 105 WK), Dose: 0, 50, 100 MG/KG 3/WK FOR 104 WK (STUDY DURATION: 105 WK)): inactive; negative | carcinogen call (Species: RAT, Strain/Sex: WISTAR/FEMALE, Route: ORAL, Dose: 0, 1, 10, 100 MG/KG/D IN DRINKING WATER FOR DURATION OF STUDY, HIGH DOSE REDUCED TO 50 MG/KG IN WK 54 (STUDY DURATION: 3, Dose: 0, 1, 10, 100 MG/KG/D IN DRINKING WATER FOR DURATION OF STUDY, HIGH DOSE REDUCED TO 50 MG/KG IN WK 54 (STUDY DURATION: 3): inactive; negative | carcinogen call (Species: RAT, Strain/Sex: WISTAR/MALE, Route: ORAL, Dose: 0, 1, 10, 100 MG/KG/D IN DRINKING WATER FOR DURATION OF STUDY, HIGH DOSE REDUCED TO 50 MG/KG IN WK 54 (STUDY DURATION: 3, Dose: 0, 1, 10, 100 MG/KG/D IN DRINKING WATER FOR DURATION OF STUDY, HIGH DOSE REDUCED TO 50 MG/KG IN WK 54 (STUDY DURATION: 3): inactive; negative

CO[Si](CCC1CCC2OC2C1)(OC)OC (centres undefined)
carcinogen call (Species: MOUSE, Strain/Sex: C3H/MALE, Route: DERMAL, Dose: 0, 25 MG IN ACETONE 3/WK FOR DURATION OF STUDY (STUDY DURATION: LIFETIME), Tumor Site: Type of Lesion: SKIN: CARCINOMA): active; positive
